From US12365658B2, “Benzothia(di)azepine compounds and their use as bile acid modulators” (Albireo AB, priority 2021, dated 2025) come the findings set out here.

SMILES strings stand for the structures.

A short description of one series: Bioavailability studies. Type of series: in vivo, Male mice (C57BL/6 or CD1) or Wistar rats. The following applies: male, plasma; single intravenous dose 1 mg/kg and single oral dose 10 mg/kg; species per compound not given. How it is done:
Male mice (C57BL/6 or CD1) or Wistar rats of 8-9 weeks old were used. For each test compound, two groups of 3 animals each were used. One group was administered a single intravenous dose of 1 mg/kg (vehicle 100% DMSO) through the tail vein and the other group was administered a single oral dose of 10 mg/kg through gavage needle. The group that was administered an oral dose was fasted overnight. Blood samples were collected after 0.083, 0.25, 0.5, 1, 2, 4, 6, 8 and 24 hours following intravenous administration, and after 0.25, 0.5, 1, 2, 4, 6, 8 and 24 hours following oral administration. Blood samples were taken from saphenous vein. 0.2% EDTA was used as the anticoagulant. The samples were analyzed by a discovery grade bioanalytical method developed for the estimation of test compound in plasma, using an LC-MS/MS system.

For the next series, the target named is T1, Human LBAT (Homo sapiens, UniProt Q14973).
T1 construct: expressed in transfected cells; kept under Geneticin selection
T1 sequence (Q14973 1-349): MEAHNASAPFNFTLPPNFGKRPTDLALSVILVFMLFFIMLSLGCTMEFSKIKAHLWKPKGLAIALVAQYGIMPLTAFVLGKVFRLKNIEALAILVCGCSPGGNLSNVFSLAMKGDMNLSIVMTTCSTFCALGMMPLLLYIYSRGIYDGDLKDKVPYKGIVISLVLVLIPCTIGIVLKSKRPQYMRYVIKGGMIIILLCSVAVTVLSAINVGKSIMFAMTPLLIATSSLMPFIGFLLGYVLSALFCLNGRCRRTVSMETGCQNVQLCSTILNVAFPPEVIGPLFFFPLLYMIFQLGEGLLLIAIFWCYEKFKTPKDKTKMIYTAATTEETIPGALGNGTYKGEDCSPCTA
Put plainly: LBAT (h/m) assay, human LBAT-overexpressing cells, 3H-taurocholic acid uptake. Type of series: cell-based. The following applies: 0.3 μM 3H-taurocholic acid and 7.5 μM cold taurocholic acid, 20 minutes, read-out: hLBAT IC50. On the procedure:
LBAT (h/m) Assay Protocol
20,000 cells (Human or Mouse LBAT-overexpressing cells) were seeded in 96-wells plate (Corning CLS3809) in 100 μL MEM-alpha medium (Gibco 12571-063) supplemented with 10% FBS (Gibco 10438026) containing Geneticin (Gibco 10131-027) (1 mg/mL) and incubated at 37° C. in 5% CO2 for 24 hours. After incubation, media was decanted from the wells and cells were washed two times with 300 μL of basal MEM-alpha medium (FBS-free). After decanting basal MEM-alpha medium each time, plates were tapped against paper towel to ensure maximum removal of residual media.
For human LBAT, incubation mix was prepared by adding test inhibitor dilutions (3-fold serial dilution in DMSO (Sigma D2650), 10 points) in MEM-alpha (without FBS) containing 0.3 μM 3H-taurocholic acid (ARC ART-1368) and 7.5 μM cold taurocholic acid (Sigma T4009) (maintaining 0.2% final DMSO concentration). For mouse LBAT, incubation mix was prepared by adding test inhibitor dilutions (3-fold serial dilution in DMSO, 10 points) in MEM-alpha (without FBS) containing 0.3 μM 3H-taurocholic acid and 25 μM cold taurocholic acid maintaining 0.2% final DMSO concentration).
50 μL of incubation mix containing test inhibitors was then added to the wells (in duplicate) and the plates were incubated for 20 minutes in a CO2 incubator at 37° C. After incubation, the reaction was stopped by keeping the plates on ice water mix for 2-3 minutes and then the incubation mix was aspirated completely from the wells. The wells were washed two times with 250 μL of chilled unlabelled 1 mM taurocholic acid dissolved in HEPES (Gibco 15630080)-buffered (10 mM) HBSS (Gibco 14175079) (pH 7.4). The plates were tapped against a paper towel after every wash to ensure maximum removal of blocking buffer.
100 μL of MicroScint-20 (PerkinElmer 6013621) was added to the wells and kept overnight at room temperature before reading the plates in TopCount NXT™ Microplate Scintillation and Luminescence Counter from PerkinElmer under 3H Test protocol (set at 120 seconds reading time per well, with normal plate orientation).
(§1) Preparation of Test Compound Dilutions
(§2) All test compounds were provided in powder form at room temperature. 10 mM DMSO stocks of the test compounds were prepared, aliquoted and stored at −20° C. From the 10 mM DMSO stock of the compounds, a 3-fold serial dilution in DMSO was prepared to get a total of 10 dilutions of the test compounds. 0.5 μL of this dilution in DMSO was added to 250 μL of FBS-free basal media containing 3H-taurocholic acid and cold taurocholic acid to prepare the incubation mixture.

Another series has as its system Caco-2 cells. Nature of the series: Bidirectional permeability assay (Caco-2 cells). It counts as in vitro ADME. The following applies: 10 μM in FaSSIF buffer, 120 minutes. On the procedure:
Bidirectional Permeability Assay (Caco-2 Cells)
Caco-2 cells (Evotec) were seeded at a density of 70,000 cells/well in Millicell® 24-well cell culture insert plates and maintained in an incubator (37° C., 5% CO2, 95% RH) for 21 days with media change on alternate days.
Stock solutions (10 mM) of the test compounds, atenolol (low permeability marker), propranolol (high permeability marker) and digoxin (substrate for P-gp transport pathway) were prepared in dimethylsulfoxide (DMSO). An intermediate stock solution (1 mM) was prepared by diluting 10 μL of 10 mM master stock solution with 90 μL of neat DMSO. A working stock solution (10 μM) was prepared by diluting 50 μL of 1 mM with 4950 μL of FaSSIF buffer. Post addition of compounds to the FaSSIF, samples were subjected to sonication for 2 hours, and centrifuged at 4000 RPM for 30 minutes at 37° C. The 4 mL of resultant supernatant was directly used in the assay. The final DMSO concentration in the transport experiments was 1%.
On the day of assay, Caco-2 monolayers were washed twice with transport buffer (HBSS, pH 7.4) and pre-incubated for 30 min (37° C., 5% CO2, 95% RH) in an incubator. The electrical resistance of the monolayers was measured with a Millicell®-ERS system. Monolayers with trans-epithelial electrical resistance (TEER) values greater than 350 ohm·cm^2 were selected for the assay.
The assay was conducted in absorptive direction (A2B) and secretory (B2A) directions. Transport experiments were initiated by addition of transport assay buffer (FaSSIF buffer prepared in HBSS) consisting of compounds to the donor compartment (apical chamber A-B; basolateral chamber B-A) in duplicate (n=2) wells. Drug free HBSS buffer (pH 7.4) containing 1% bovine serum albumin (BSA) was introduced to the receiver (A-B-basolateral; B-A-Apical) compartments. The volumes of apical and basolateral compartments were 0.4 and 0.8 mL, respectively. After adding dosing solution, plates were incubated in an incubator for 120 minutes at 37° C. After 120 minutes, donor and receiver samples were collected and matrix matched (1:1, 30 μL study sample+30 μL blank buffer) with the opposite buffer. Dosing samples matrix matched (1:1, 30 μL study sample+30 μL blank buffer) with the opposite buffer. Samples were processed by adding acetonitrile containing internal standard (60 μL study sample+200 μL acetonitrile containing internal standard-Tolbutamide, 500 ng/mL). Samples were vortexed and centrifuged at 4000 rpm for 10 minutes. The obtained supernatant (100 μL) was diluted with 100 μL of water and transferred to fresh 96 well plates. The concentration of compounds in the samples was analyzed by liquid chromatography tandem mass spectrometry (LC-MS/MS) method using discovery grade bio-analytical method, as applicable.
The mean apparent permeability (Papp, ×10^−6 cm/sec) of the test compounds, atenolol, propranolol and digoxin were calculated as follows:
where dq/dt=rate of transport (rate of transport of compound in the receiver compartment), C0=initial concentration in the donor compartment, A=surface area of the effective filter membrane.
(In general: Caco-2 cells form a polarised layer with tight junctions and transporters.)

A further series deals with T2, Human IBAT (Homo sapiens, UniProt Q12908).
T2 construct: expressed in transfected cells; kept under Puromycin selection
T2 sequence (Q12908 1-348): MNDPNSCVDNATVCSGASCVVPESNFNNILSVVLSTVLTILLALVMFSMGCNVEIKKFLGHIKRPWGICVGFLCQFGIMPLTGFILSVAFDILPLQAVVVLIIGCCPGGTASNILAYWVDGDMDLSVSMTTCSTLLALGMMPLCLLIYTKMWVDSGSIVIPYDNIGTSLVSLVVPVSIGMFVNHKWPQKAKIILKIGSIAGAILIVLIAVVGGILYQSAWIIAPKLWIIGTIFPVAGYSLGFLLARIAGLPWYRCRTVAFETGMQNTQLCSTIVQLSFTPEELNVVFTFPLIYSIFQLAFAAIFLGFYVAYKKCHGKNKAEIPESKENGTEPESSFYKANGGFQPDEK
Nature of the series: IBAT (h/m) assay, human IBAT-overexpressing cells, 3H-taurocholic acid uptake. The settings on record: 0.25 μM 3H-taurocholic acid and 5 μM cold taurocholic acid, 20 minutes, highest test concentration 10 μM, read-out: hIBAT IC50. It counts as cell-based. On the procedure: IBAT (h/m) Assay Protocol
10,000 cells (Human or Mouse IBAT-overexpressing cells) were seeded in 96-wells plate (Corning CLS3809) in 200 μL MEM-alpha medium (Gibco 12571-063) supplemented with 10% FBS (Gibco 10438026) containing Puromycin (Gibco A1113803) (10 μg/mL) and incubated at 37° C. in 5% CO2 for 48 hours. After incubation, media was decanted from the wells and cells were washed two times with 300 μL of basal MEM-alpha medium (FBS-free). After decanting basal MEM-alpha medium each time, plates were tapped against paper towel to ensure maximum removal of residual media. Test inhibitor dilutions (highest test concentration being 10 μM, 3-fold serial dilution, 10 points) prepared in DMSO (Sigma D2650) were added in incubation mix (maintaining 0.2% final DMSO concentration) containing 0.25 μM 3H-taurocholic acid (ARC ART-1368) and 5 μM of cold taurocholic acid (Sigma T4009). 50 μL of incubation mix containing test inhibitors was then added to the wells (in duplicate) and the plates were incubated for 20 minutes in a CO2 incubator at 37° C. After incubation, the reaction was stopped by keeping the plates on ice water mix for 2-3 minutes and then the incubation mix was aspirated completely from the wells. The wells were washed two times with 250 μL of chilled unlabelled 1 mM taurocholic acid dissolved in HEPES (Gibco 15630080)-buffered (10 mM) HBSS (Gibco 14175079) (pH 7.4). The plates were tapped against a paper towel after every wash to ensure maximum removal of blocking buffer.
100 μL of MicroScint-20 (PerkinElmer 6013621) was added to the wells and kept overnight at room temperature before reading the plates in TopCount NXT™ Microplate Scintillation and Luminescence Counter from PerkinElmer under 3H Test protocol (set at 120 seconds reading time per well).
as §1, §2

For orientation: bioavailability means the share of a dose that reaches the circulation, judged against a reference dose that is usually intravenous. In general, IC50 refers to the concentration needed to halve the response being measured.

For `CCCCC1CN(c2ccc(F)cc2)c2cc(SC)c(OCC(C)(C)C(=O)O)cc2S(=O)(=O)N1C` (single isomer, unassigned) [14, enantiomer 2], the bioavailability in the series “Bioavailability studies” is 100%. Besides, at Human LBAT, the IC50 amounted to 3 nM. Also, in the series with Caco-2 cells (absorptive direction (A2B)), the “Permeability (Caco-2) Papp A2B” value was found to be 12.2 ×10⁻⁶ cm/s. Besides, in the series with Caco-2 cells (secretory direction (B2A)), the “Permeability (Caco-2) Papp B2A” value turned out to be 7.3 ×10⁻⁶ cm/s.

Take `CCCCC1CN(c2ccccc2)c2cc(SC)c(OCC(F)(F)C(=O)O)cc2S(=O)(=O)N1C` (stereo not drawn) [Example 20, 3-((3-butyl-2-methyl-7-(methylthio)-1,1-dioxido-5-phenyl-2,3,4,5-tetrahydro-1,2,5-benzothiadiazepin-8-yl)oxy)-2,2-difluoropropanoic acid]: the values for the half-maximal inhibitory concentration (IC50) on Human IBAT and at Human LBAT were 259 nM and 1.1 nM, respectively.
